Measurements from patent US4220644A, “7-Acylamino-3-(substituted tetrazolyl thiomethyl) cephalosporins” (SmithKline Corporation, priority 1976, dated 1980).
In brackets after ≈: the same amount, converted by molar mass.

Columns and labels:
[1] = system: S. aureus HH 127; test: MIC in vitro (Table 1), S. aureus HH 127; assay type: cell-based; conditions: Staphylococcus aureus, HH127, in vitro, S. aureus HH 127; read-out: MIC
Source text: (§1) Compound names corresponding to numbers are given in the experimental section. For comparative purposes, data for cephamandole, which is 7-mandelamido-3-(1-methyltetrazol-5-ylthiomethyl)-3-cephem-4-carboxylic acid, is also given in Tables 1 and 2.

[2] = system: S. aureus SK 23390; test: MIC in vitro (Table 1), S. aureus SK 23390; assay type: cell-based; conditions: Staphylococcus aureus, SK23390, in vitro, S. aureus SK 23390; read-out: MIC
Source text: as §1

[3] = system: S. villaluz; test: MIC in vitro (Table 1), S. villaluz; assay type: cell-based
Source text: as §1, with “The compounds of Formula I have antibacterial activity against both Gram-positive and Gram-negative organisms. […] Compound” for “Compound”

[4] = system: Strep. Faecalis HH 34358; test: MIC in vitro (Table 1), Strep. Faecalis HH 34358; assay type: cell-based; conditions: Enterococcus faecalis, in vitro, Strep. Faecalis HH 34358; read-out: MIC
Source text: as §1

[5] = system: E. coli SK 12140; test: MIC in vitro (Table 1), E. coli SK 12140; assay type: cell-based; conditions: Escherichia coli, SK12140, in vitro, read-out: MIC
Source text: as §1

[6] = system: E. coli HH 33779; test: MIC in vitro (Table 1), E. coli HH 33779; assay type: cell-based; conditions: Escherichia coli, HH33779, in vitro, E. coli HH 33779; read-out: MIC
Source text: as §1

[7] = system: Kleb. pneumo. SK 4200; test: MIC in vitro (Table 1), Kleb. pneumo. SK 4200; assay type: cell-based; conditions: in vitro, Kleb. pneumo. SK 4200; read-out: MIC
Source text: as §1

[8] = system: Kleb. pneumo. SK 1200; test: MIC in vitro (Table 1), Kleb. pneumo. SK 1200; assay type: cell-based; conditions: read-out: MIC
Source text: as §1

[9] = system: Pseudo. sp. HH 63; test: MIC in vitro (Table 1), Pseudo. sp. HH 63; assay type: cell-based
Source text: as §1, with “The compounds of Formula I have antibacterial activity against both Gram-positive and Gram-negative organisms. […] Compound” for “Compound”

[10] = system: Salmonella ATCC 12176; test: MIC in vitro (Table 1), Salmonella ATCC 12176; assay type: cell-based; conditions: Salmonella, ATCC12176, in vitro
Source text: as §1, with “The compounds of Formula I have antibacterial activity against both Gram-positive and Gram-negative organisms. […] Compound” for “Compound”

[11] = system: Shigella HH 117; test: MIC in vitro (Table 1), Shigella HH 117; assay type: cell-based; conditions: Shigella, HH117, in vitro
Source text: as §1, with “The compounds of Formula I have antibacterial activity against both Gram-positive and Gram-negative organisms. […] Compound” for “Compound”

[12] = system: Entero. aerog. ATCC 13048; test: MIC in vitro (Table 1), Entero. aerog. ATCC 13048; assay type: cell-based; conditions: in vitro, Entero. aerog. ATCC 13048; read-out: MIC
Source text: as §1

[13] = system: Serra. Marc. ATCC 13880; test: MIC in vitro (Table 1), Serra. Marc. ATCC 13880; assay type: cell-based; conditions: in vitro, Serra. Marc. ATCC 13880; read-out: MIC
Source text: as §1

[14] = system: Entero. cloacae HH 31254; test: MIC in vitro (Table 1), Entero. cloacae HH 31254; assay type: cell-based; conditions: Enterobacter cloacae, HH31254, in vitro, Entero. cloacae HH 31254; read-out: MIC
Source text: as §1

[15] = system: Proteus morgani 179; test: MIC in vitro (Table 1), Proteus morgani 179; assay type: cell-based; conditions: read-out: MIC
Source text: as §1

[16] = system: E. coli 12140; test: In vivo mouse protection (Table 2), E. coli 12140
Source text: as §1

[17] = system: Kleb. pneumo. 4200; test: In vivo mouse protection (Table 2), Kleb. pneumo. 4200
Source text: as §1

`Cn1nnnc1SCC1=C(C(=O)O)N2C(=O)C(NC(=O)C(O)c3ccccc3)[C@H]2SC1` (stereo partly shown) [cephamandole, 7-mandelamido-3-(1-methyltetrazol-5-ylthiomethyl)-3-cephem-4-carboxylic acid, reference compound] was tested, and the MIC [1] was 1 µg/mL (≈ 2.16 µM), the MIC [2] was 0.6 µg/mL (≈ 1.3 µM) and the MIC [3] was 8 µg/mL (≈ 17.3 µM). It also gave an MIC [4] of 2.3 µg/mL (≈ 4.97 µM), an MIC [5] of 1.1 µg/mL (≈ 2.38 µM) and an MIC [6] of 2.6 µg/mL (≈ 5.62 µM). For the same molecule, the MIC [7] was 1.1 µg/mL (≈ 2.38 µM), the MIC [8] was 0.6 µg/mL (≈ 1.3 µM) and the MIC [9] was greater than 200 µg/mL. It also gave an MIC [10] of 0.6 µg/mL (≈ 1.3 µM), an MIC [11] of 0.2 µg/mL (≈ 0.432 µM) and an MIC [12] of 2.9 µg/mL (≈ 6.27 µM). The MIC [13] was 13 µg/mL (≈ 28.1 µM), the MIC [14] was 0.7 µg/mL (≈ 1.51 µM) and the MIC [15] was 1.3 µg/mL (≈ 2.81 µM). For the same molecule, the ED50 ([16]; Escherichia coli, 12140, po, E. coli 12140, p.o.) was 28 mg/kg, the ED50 ([16]; Escherichia coli, 12140, sc, E. coli 12140, s.c.) was less than 2 mg/kg and the ED50 ([17]; po, Kleb. pneumo. 4200, p.o.) was greater than 50 mg/kg. It also gave an ED50 ([17]; sc, Kleb. pneumo. 4200, s.c.) of 0.96 mg/kg.
